Measured values taken from ChEMBL document CHEMBL5725340, “BMP inhibitors and methods of use thereof” (2017).

Target: T1, Activin receptor type-1 (Homo sapiens, UniProt Q04771)
T1 sequence (Q04771 whole entry): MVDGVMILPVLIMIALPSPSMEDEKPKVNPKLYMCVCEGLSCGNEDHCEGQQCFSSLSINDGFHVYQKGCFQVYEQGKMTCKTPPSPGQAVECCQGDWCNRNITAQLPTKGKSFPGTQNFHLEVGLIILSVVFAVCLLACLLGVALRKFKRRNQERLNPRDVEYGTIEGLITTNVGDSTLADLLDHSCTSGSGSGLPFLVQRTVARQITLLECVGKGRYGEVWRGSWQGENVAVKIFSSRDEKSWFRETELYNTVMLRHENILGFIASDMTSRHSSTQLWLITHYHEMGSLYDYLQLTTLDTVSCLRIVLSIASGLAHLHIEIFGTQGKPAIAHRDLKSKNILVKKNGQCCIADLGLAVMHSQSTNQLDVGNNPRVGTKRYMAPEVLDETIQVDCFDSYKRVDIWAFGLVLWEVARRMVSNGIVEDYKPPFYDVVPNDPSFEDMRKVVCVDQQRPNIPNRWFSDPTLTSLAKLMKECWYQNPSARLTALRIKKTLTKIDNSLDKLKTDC
Experiment: ALK1-6 enzymatic assays: Specifically, compounds were assayed using LANCE® Ultra ULight¿ technology (Perkin Elmer) against human ALK1-6 enzymes (ALK1: Life Technologies, ALK2-6: Carna Biosciences). Briefly, ALK enzyme (10 nM) was prepared in kinase buffer (50 mM HEPES, pH 7.5, 10 mM MgCl2, […], 0.005% Tween-20 and 2 mM DTT) and dispensed at 2.5 μL/well into a 1536 well, white, solid …

IC50: 23 nM
Structure (SMILES): Cc1cc(-c2cnn3cc(-c4ccc(C5CCNCC5)cc4)cnc23)c2ccccc2n1
